One assay has as its target Human Mek1 Kinase (Homo sapiens, UniProt Q02750, S218E/S222E). As to the kind of experiment: MEK-1 Enzyme Assay (LANCE-HTRF). The class given is biochemical. Conditions: constitutively active MEK-1EE, ERK-2K52A substrate, 9 μM ATP, 1.5 hrs room temperature. The method, then:
Assay 1: MEK-1 Enzyme Assay (LANCE-HTRF)
Inhibition of Human Mek1 Kinase Activity was Monitored with a Homogenous, fluorescence-based assay. The assay uses time resolved fluorescence resonance energy transfer to probe for phosphorylation of ERK1 by MEK1. The detailed procedure is described in the following:
Constititutively active MEK-1EE (150 ng/well) and ERK-2K52A (110 ng/well) were incubated in black, 384 well Optiplates (Perkin Elmer) for 1.5 hrs at room temperature, in the presence of increasing concentrations of inhibitors. The total reaction volume was 50 μl. The inhibitors were serial diluted in kinase buffer (9 μM ATP, 50 mM Tris-HCl pH 8.0, 10 mM MgCl2, 1 mM DTT and 100 μM Na3VO4), to a final concentration of 1% DMSO. At the end of the incubation, the enzyme reaction was quenched by adding 50 μl of assay buffer containing 50 mM Tris-HCl, 50 mM EDTA, 0.1% BSA and a mixture of 1.25 ug/ml europium labeled anti-phosphotyrosine mAb (Perkin Elmer) and 5 μg/ml of allophycocyanin labeled anti-GST antibody (CIS-US). Plates were agitated on a plate shaker for 30 minutes and the phosphorylation of the ERK-2K52A substrate was measured by homogeneous time resolved fluorescence (HTRF) at 340 nm excitation and 665 nm (Europium)/615 nm (APC) emission filters on the VICTOR V fluorescence plate reader. Phosphorylation is expressed as a ratio of 665 nM signal×10,000/615 nM signal. To assess the inhibitory potential of the compounds, IC50-values were determined. Results are shown in Table 1, column 2, where “+++” indicates IC50 values below 1 μM, “++” indicates IC50 values below 10 μM and above 1 μM, and “+” indicates IC50 values above 10 μM.
(TR-FRET usually uses a lanthanide donor and a delayed reading to cut background.)

Assay [1] deals with human pancreatic MiaPaCa-2 cells. As to the kind of experiment: Tumor Cell Proliferation Assay (ATP Lite), MiaPaCa-2. The class given is cell-based. Conditions: MIA PaCa-2, 96 h, 4 days incubation, ATPlite, read-out: MiaPaCa2. The method, then: (§1) Assay 2: Tumor Cell Proliferation Assays (ATP Lite)
(§2) Murine colon C26 (1500 cells/well), human melanoma A375 (2000 cells/well), or human pancreatic MiaPaCa-2 cells (2000 cells/well) were plated in white, 96 well plates (Corning) in growth media (DMEM with 10% fetal bovine serum, 2 mM glutamine for C26 and MiaPaCa-2, and RPMI with 10% fetal bovine serum, 2 mM glutamine for A375) and cultured overnight at 37° C. in a humidified, 5% CO2 incubator. Inhibitors were serially diluted in 100% DMSO and subsequently added to the cells, in growth media, to reach a final concentration of 0.25% DMSO. The cells were incubated for 4 days in the presence of the test compounds and the proliferation was quantitated using the ATPlite cell proliferation kit (Packard). Results of cell proliferation assay are shown in Table 1. columns 3-5, where “+++” indicates IC50 values below 1 μM, “++” indicates IC50 values below 10 μM and above 1 μM, and “+” indicates IC50 values above 10 μM.
For orientation: Cellular ATP, detected with luciferase, serves as a proxy for viable cell number.

Another assay relates to Murine colon C26 cells. The assay can be described thus: Tumor Cell Proliferation Assay (ATP Lite), C26. The settings on record: Mus musculus, 96 h, 4 days incubation, ATPlite. The class given is cell-based. The method, then: as §1, §2
Assay [2] has as its system human melanoma A375 cells. As to the kind of experiment: Tumor Cell Proliferation Assay (ATP Lite), A375. The class given is cell-based. The settings on record: A-375, 96 h, 4 days incubation, ATPlite. The protocol: as §1, §2

Some results are limits rather than exact numbers.

This note sets out measurements from patent US7772233B2, “Arylamino N-heteroaryl compounds as MEK inhibitors” (Merck Serono, S.A., priority 2006, dated 2010).

Sequence of Human Mek1 Kinase (Q02750 whole entry S218E/S222E): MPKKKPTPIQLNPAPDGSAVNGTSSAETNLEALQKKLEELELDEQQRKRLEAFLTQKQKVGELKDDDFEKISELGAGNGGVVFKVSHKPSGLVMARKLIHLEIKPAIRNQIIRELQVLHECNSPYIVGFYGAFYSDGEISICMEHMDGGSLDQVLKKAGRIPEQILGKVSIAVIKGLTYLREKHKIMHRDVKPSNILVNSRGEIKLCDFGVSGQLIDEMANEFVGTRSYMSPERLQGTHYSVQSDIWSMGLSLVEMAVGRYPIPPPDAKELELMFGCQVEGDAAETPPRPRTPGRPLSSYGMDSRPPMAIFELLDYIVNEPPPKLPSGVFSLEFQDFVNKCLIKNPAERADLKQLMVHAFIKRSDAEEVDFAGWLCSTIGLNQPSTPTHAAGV

As to `N#Cc1ncc(F)cc1Nc1ccc(I)cc1F` [Example 1, 5-Fluoro-3-(2-fluoro-4-iodo-phenylamino)-pyridine-2-carbonitrile], the IC50 on Human Mek1 Kinase was over 10 µM.
Same read-out and setting: with `O=C(O)c1ncc(F)cc1Nc1ccc(I)cc1F` [Example 2, 5-Fluoro-3-(2-fluoro-4-iodo-phenylamino)-pyridine-2-carboxylic acid] the figure was 1 to 10 µM.
As for `NC(=O)c1ncc(F)cc1Nc1ccc(I)cc1F` [Example 3, 5-Fluoro-3-(2-fluoro-4-iodo-phenylamino)-pyridine-2-carboxylic acid amide], the IC50 in assay [1] was over 10 µM; in the assay with Murine colon C26 cells, over 10 µM; in assay [2], 1 to 10 µM; against Human Mek1 Kinase, under 1 µM.
Regarding `O=C(O)c1cc(Cl)nnc1Nc1ccc(I)cc1F` [Example 4, 6-Chloro-3-(2-fluoro-4-iodo-phenylamino)-pyridazine-4-carboxylic acid], the IC50 is over 10 µM in assay [1], over 10 µM in the assay on Murine colon C26 cells, over 10 µM in assay [2] and under 1 µM against Human Mek1 Kinase.
For `O=C(O)c1cc(N2CCOCC2)nnc1Nc1ccc(I)cc1F` [Example 5, 3-(2-Fluoro-4-iodo-phenylamino)-6-morpholin-4-yl-pyridazine-4-carboxylic acid], the IC50 in assay [1] is over 10 µM; in the assay with Murine colon C26 cells, over 10 µM; in assay [2] it was over 10 µM; against Human Mek1 Kinase it was 1 to 10 µM.
For the compound `COc1cc(C(=O)O)c(Nc2ccc(I)cc2F)nn1` [Example 6, 3-(2-Fluoro-4-iodo-phenylamino)-6-methoxy-pyridazine-4-carboxylic acid], the IC50 (in assay [1]; with Murine colon C26 cells; in assay [2]; against Human Mek1 Kinase) was over 10 µM each time.
With `CC1(C)OC[C@H](CONC(=O)c2cc(Cl)nnc2Nc2ccc(I)cc2F)O1` [Example 7, 6-Chloro-3-(2-fluoro-4-iodo-phenylamino)-pyridazine-4-carboxylic acid (2,2-dimethyl-[1,3]dioxolan-4-ylmethoxy)-amide], the IC50 (in assay [1]; in the assay on Murine colon C26 cells; in assay [2]; on Human Mek1 Kinase) was over 10 µM throughout.
The compound `O=C(NOC[C@H](O)CO)c1cc(Cl)nnc1Nc1ccc(I)cc1F` [Example 8, 6-Chloro-3-(2-fluoro-4-iodo-phenylamino)-pyridazine-4-carboxylic acid (2,3-dihydroxy-propoxy)-amide] displayed an IC50 against Human Mek1 Kinase of over 10 µM.
`NC(=O)c1cc(Cl)nnc1Nc1ccc(I)cc1F` [Example 9, 6-Chloro-3-(2-fluoro-4-iodo-phenylamino)-pyridazine-4-carboxylic acid amide]: the IC50 was 1 to 10 µM in assay [1], over 10 µM with Murine colon C26 cells, 1 to 10 µM in assay [2] and under 1 µM at Human Mek1 Kinase.
For the compound `O=C(NCCN1CCOCC1)c1cc(Cl)nnc1Nc1ccc(I)cc1F` [Example 10, 6-Chloro-3-(2-fluoro-4-iodo-phenylamino)-pyridazine-4-carboxylic acid (2-morpholin-4-yl-ethyl)-amide], the IC50 against Human Mek1 Kinase is 1 to 10 µM.
Turning to `O=C(O)c1ccc(F)nc1Nc1ccc(I)cc1F` [Example 11, 6-fluoro-2-[(2-fluoro-4-iodophenyl)amino]nicotinic acid], the IC50 in assay [1] is over 10 µM; with Murine colon C26 cells it was over 10 µM; in assay [2] it was over 10 µM; on Human Mek1 Kinase, under 1 µM.
Take `CC1(C)OC[C@H](CONC(=O)c2ccc(F)nc2Nc2ccc(I)cc2F)O1` [Example 12, N-{[(4R)-2,2-dimethyl-1,3-dioxolan-4-yl]methoxy}-6-fluoro-2-[(2-fluoro-4-iodophenyl)amino]nicotinamide]: the IC50 on Human Mek1 Kinase was in the range of 1 to 10 µM.
For `O=C(NOC[C@H](O)CO)c1ccc(F)nc1Nc1ccc(I)cc1F` [Example 13, N—[(R)-2,3-Dihydroxy-propoxy]-6-fluoro-2-[(2-fluoro-4-iodo-phenylamino)]-nicotinamide], the IC50 in assay [1] is over 10 µM; in the assay with Murine colon C26 cells, over 10 µM; in assay [2] it was 1 to 10 µM; on Human Mek1 Kinase it was 1 to 10 µM.
